Measured values: US20250332173A1, “COMPOUNDS AND METHODS FOR MODULATING NUCLEIC ACID SPLICING” (REMIX THERAPEUTICS INC., priority 2021, published 2025)
Read-outs that look alike come from different tables or passages of the source.

Experiments:
HTT mRNA = test: RT-qPCR splicing assay, HTT canonical junction (CJ) and alternative junction (AJ) mRNA; assay type: cell-based, human; details: Homo sapiens; for AC50: increase in HTT alternative junction (AJ) mRNA, read-out: HTT AJ AC50
Summary of the method: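 Following a 24-hour incubation of A673 or K562 cells with serially diluted compound (3-fold steps, highest final 10 uM), the lysates undergo cDNA synthesis plus qPCR. Canonical and alternative junctions are each quantified against PPIA, GAPDH or GUSB.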

SMN2 mRNA = test: RT-qPCR splicing assay, SMN2 canonical junction (CJ) mRNA; assay type: cell-based, human; details: Homo sapiens; Table 5 panel; canonical junction qPCR; compound concentration having 50% response in CJ decrease; read-out: SMN2 IC50 (decrease in CJ mRNA levels)
Summary of the method: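 Cells are plated (A673 allowed 24 h to adhere), dosed with an 11-point 3-fold series topping at 10 uM final, and incubated 24 h at 37 °C. Lysis is followed by cDNA synthesis and qPCR of the CJ transcript, normalized to a housekeeping gene.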

[1] = decrease in HTT canonical junction (CJ) mRNA, RT-qPCR, read-out: HTT CJ IC50
[2] = Table 5 panel, canonical junction qPCR, compound concentration having 50% response in CJ decrease, read-out: HTT IC50 (decrease in CJ mRNA levels)

Row | SMILES | IC50 (HTT mRNA; [1]) [nM] | IC50 (HTT mRNA; [2]) [nM] | IC50 (SMN2 mRNA) [nM] | AC50 (HTT mRNA; RT-qPCR) [nM]
1 | CN1CCN(c2ccc3c(=O)n(-c4ccc5nn(C)cc5c4)cnc3c2)CC1 [Compound 152] | > 10000 | > 10000 | > 10000 | > 10000
2 | Cn1cc2cc(-n3cnc4cc(N5CCNCC5)ccc4c3=O)ccc2n1 [Compound 153] | > 10000 | > 10000 | 1000 to 10000 | > 10000
3 | Cc1cc(-c2ccc3c(=O)n(C4CCN(C)CC4)cnc3c2)cc2cn(C)nc12 [Compound 156] | 1000 to 10000 | 1000 to 10000 | 100 to 1000 | 1000 to 10000
4 | Cc1cc(-c2ccc3c(=O)n(C4CC(C)(C)NC(C)(C)C4)cnc3c2)cc2cn(C)nc12 [Compound 157] | > 10000 | > 10000 | 1000 to 10000 | > 10000
5 | Cn1cc2cc(-n3cnc4cc(C5=CCNCC5)ccc4c3=O)ccc2n1 [Compound 158] | > 10000 | > 10000 | > 10000 | > 10000
6 | CN1CC=C(c2ccc3c(=O)n(-c4ccc5nn(C)cc5c4)cnc3c2)CC1 [Compound 159] | > 10000 | > 10000 | > 10000 | > 10000
7 | Cc1cn2nc(-c3ccc4c(c3)CCN(C3CCN(C)CC3)C4=O)cc(C)c2n1 [Compound 268] | 1000 to 10000 | 1000 to 10000 | < 100 | 1000 to 10000
8 | Cc1cn2nc(-c3ccc4c(c3)CCN(C3CCNC3)C4=O)cc(C)c2n1 (stereo not shown) [Compound 269] | > 10000 | > 10000 | 1000 to 10000 | > 10000
9 | CCN1CCC(N2CCc3cc(-c4cc(C)c5nc(C)cn5n4)ccc3C2=O)CC1 [Compound 270] | 1000 to 10000 | 1000 to 10000 | 100 to 1000 | 1000 to 10000
10 | Cc1cn2nc(-c3ccc4c(=O)n(C5CCN(C)C5)ncc4c3)cc(C)c2n1 (stereo not shown) [Compound 271] | 1000 to 10000 | 1000 to 10000 | 100 to 1000 | 1000 to 10000
11 | Cc1cn2nc(-c3ccc4c(=O)n([C@@H]5C[C@H]6CC[C@@H](C5)N6)ncc4c3)cc(C)c2n1 [Compound 280] | 100 to 1000 | 100 to 1000 | < 100 | 100 to 1000
12 | Cc1cn2nc(-c3ccc4c(c3)CCN([C@@H]3CCN[C@H](C)C3)C4=O)cc(C)c2n1 [Compound 281] | 1000 to 10000 | 1000 to 10000 | 100 to 1000 | 1000 to 10000
13 | Cc1cn2nc(-c3ccc4c(c3)CCN(C3CCN(C)C3)C4=O)cc(C)c2n1 (stereo not shown) [Compound 282] | > 10000 | > 10000 | 1000 to 10000 | > 10000
14 | O=c1c2ccc(-c3cn[nH]c3)cc2ncn1C1CCNCC1 [Compound 284] | > 10000 | > 10000 | 1000 to 10000 | > 10000
15 | Cc1nc2c(F)cc(-c3ccc4c(=O)n(C5CCNCC5)cnc4c3)cc2s1 [Compound 285] | > 10000 | 1000 to 10000 | < 100 | 1000 to 10000
16 | Cc1cn2cc(-c3ccc4c(=O)n(C5CCNCC5)cnc4c3)nc2c(C)n1 [Compound 286] | 1000 to 10000 | 1000 to 10000 | 100 to 1000 | 1000 to 10000
17 | Cc1cn2nc(-c3ccc4c(=O)n(C5CCN(C)CC5)cnc4c3)nc2c(C)n1 [Compound 288, 7-{6,8-dimethyl-[1,2,4]triazolo[1,5-a]pyrazin-2-yl}1-3-(1-methylpiperidin-4-yl)quinazolin-4-one] | 1000 to 10000 | 1000 to 10000 | 1000 to 10000 | 1000 to 10000
18 | Cc1cn2cc(-c3ccc4c(=O)n([C@@H]5CCN[C@@H](C)C5)cnc4c3)cc(F)c2n1 [Compound 293] | 1000 to 10000 | 100 to 1000 | < 100 | 100 to 1000
19 | Cc1cn2cc(-c3ccc4c(=O)n(C5CCN[C@@H](C)C5)cnc4c3)cc(F)c2n1 (stereo partly shown) [Compound 294] | 1000 to 10000 | 1000 to 10000 | < 100 | 1000 to 10000
20 | Cc1cn2cc(-c3ccc4c(=O)n([C@@H]5CCN[C@H](C)C5)cnc4c3)cc(F)c2n1 [Compound 295] | 1000 to 10000 | 1000 to 10000 | < 100 | 1000 to 10000
21 | Cc1cn2cc(-c3ccc4c(=O)n(C5CCNCC5)cnc4c3)ncc2n1 [Compound 297] | 1000 to 10000 | 1000 to 10000 | < 100 | 1000 to 10000
22 | CN1CCC(n2cnc3cc(-c4cn[nH]c4)ccc3c2=O)CC1 [Compound 299] | > 10000 | > 10000 | > 10000 | > 10000
23 | Cc1nc2c(F)cc(-c3ccc4c(=O)n(C5CCN(C)CC5)cnc4c3)cc2o1 [Compound 300] | 1000 to 10000 | 100 to 1000 | < 100 | 100 to 1000
24 | Cc1nc2c(F)cc(-c3ccc4c(=O)n(C5CCN(C)CC5)cnc4c3)cc2s1 [Compound 301] | 1000 to 10000 | 1000 to 10000 | 1000 to 10000 | 1000 to 10000
25 | Cc1cn2cc(-c3ccc4c(=O)n(C5CCN(C)CC5)cnc4c3)nc2c(C)n1 [Compound 302] | 1000 to 10000 | 1000 to 10000 | 100 to 1000 | 1000 to 10000

Continued, in another order:

Row | IC50 (HTT mRNA; [1]) [nM] | IC50 (HTT mRNA; [2]) [nM] | IC50 (SMN2 mRNA) [nM] | SMILES | AC50 (HTT mRNA; RT-qPCR) [nM]
26 | 100 to 1000 | 100 to 1000 | < 100 | Cc1cn2cc(-c3cc(F)c4c(=O)n([C@H]5CCNC[C@@H]5F)cnc4c3)cc(F)c2n1 (relative stereo) [Compound 341, 5-fluoro-7-(8-fluoro-2-methylimidazo[1,2-a]pyridin-6-yl)-3-(trans-3-fluoropiperidin-4-yl)quinazolin-4(3H)-one] | 100 to 1000
27 | 100 to 1000 | 100 to 1000 | < 100 | Cc1cn2cc(-c3cc(F)c4c(=O)n([C@H]5CCN[C@@H](C)C5)cnc4c3)cc(F)c2n1 (relative stereo) [Compound 343, cis-5-fluoro-7-(8-fluoro-2-methylimidazo[1,2-a]pyridin-6-yl)-3-(2-methylpiperidin-4-yl)quinazolin-4(3H)-one] | 100 to 1000
28 | < 100 | < 100 | < 100 | Cc1cn2nc(-c3cc(F)c4c(=O)n([C@H]5CCNC6(CC6)C5)cnc4c3)cc(C)c2n1 (single isomer, unassigned) [Compound 357] | < 100
29 | < 100 | < 100 | < 100 | CCN1CCC(n2ncc3cc(-c4cc(C)c5nc(C)cn5n4)ccc3c2=O)CC1 [Compound 266] | < 100
30 | 100 to 1000 | 1000 to 10000 | < 100 | Cc1cn2nc(-c3ccc4c(c3)CCN(C3CCNC(C)(C)C3)C4=O)cc(C)c2n1 (stereo not shown) [Compound 267] | 1000 to 10000
31 | 100 to 1000 | < 100 | < 100 | Cc1cn2nc(-c3ccc4c(=O)n([C@@H]5CCN[C@H](C)C5)ncc4c3)cc(C)c2n1 [Compound 272] | < 100
32 | < 100 | < 100 | < 100 | Cc1cn2nc(-c3ccc4c(=O)n(C5CCNC6(CC6)C5)ncc4c3)cc(C)c2n1 (stereo not shown) [Compound 274] | < 100
33 | < 100 | < 100 | < 100 | Cc1cn2cc(-c3ccc4c(=O)n(C5CCNCC5)ccc4c3)cc(F)c2n1 [Compound 276] | < 100
34 | 100 to 1000 | 100 to 1000 | < 100 | Cc1cn2nc(-c3ccc4c(=O)n([C@@H]5CCN(C)[C@H](C)C5)ncc4c3)cc(C)c2n1 [Compound 277] | 100 to 1000
35 | < 100 | < 100 | < 100 | Cc1cn2nc(-c3ccc4c(=O)n([C@H]5CCN(C)[C@H](C)C5)ncc4c3)cc(C)c2n1 [Compound 278] | < 100
36 | 100 to 1000 | 100 to 1000 | < 100 | Cc1cn2nc(-c3ccc4c(=O)n(C5CCNC(C)(C)C5)ncc4c3)cc(C)c2n1 (stereo not shown) [Compound 279] | 100 to 1000
37 | 100 to 1000 | 100 to 1000 | < 100 | Cc1cn2nc(-c3ccc4c(=O)n(C5CCCNCC5)ncc4c3)cc(C)c2n1 (stereo not shown) [Compound 283] | 100 to 1000
38 | 100 to 1000 | 100 to 1000 | < 100 | Cc1cn2nc(-c3ccc4c(=O)n(C5CCNCC5)cnc4c3)nc2c(C)n1 [Compound 287, 7-{6,8-dimethyl-[1,2,4]triazolo[1,5-a]pyrazin-2-yl}-3-(piperidin-4-yl)quinazolin-4-one] | 100 to 1000
39 | 100 to 1000 | 100 to 1000 | 100 to 1000 | Cc1cn2nc(-c3ccc4c(=O)n(C5CCN(C)CC5)cnc4c3F)cc(C)c2n1 [Compound 290] | 100 to 1000
40 | 100 to 1000 | 100 to 1000 | < 100 | Cc1cn2cc(-c3ccc4c(=O)n(C5CCNCC5)cnc4c3)cc(Cl)c2n1 [Compound 291] | 100 to 1000
41 | 100 to 1000 | 100 to 1000 | < 100 | Cc1cn2cc(-c3ccc4c(=O)n(C5CCNCC5)cnc4c3)cc(C)c2n1 [Compound 292] | 100 to 1000
42 | 100 to 1000 | 100 to 1000 | < 100 | Cc1cn2cc(-c3ccc4c(=O)n([C@H]5CCN[C@H](C)C5)cnc4c3)cc(F)c2n1 [Compound 296] | 100 to 1000
43 | 100 to 1000 | 100 to 1000 | < 100 | Cc1cn2nc(-c3ccc4c(=O)n(C5CCNCC5)cnc4c3)cc2c(C)n1 [Compound 298] | 100 to 1000
